Reference: ChEMBL document CHEMBL2417377, “Hit-to-lead optimization and kinase selectivity of imidazo[1,2-a]quinoxalin-4-amine derived JNK1 inhibitors” (Bioorg Med Chem Lett, 2013)

Columns and labels:
[1] = target: T1, Mitogen-activated protein kinase 8 (Homo sapiens, UniProt P45983); assay: Inhibition of human recombinant histidine-tagged full-length JNK1 expressed in insect cells activated by GST-tagged MAP2K7 using ATF2 as substrate after 1 hr by luminescence plate reader analysis
[2] = target: T1, Mitogen-activated protein kinase 8; assay: Inhibition of JNK1 in human Jurkat cell lysates using desthiobiotin-tagged ATP probe AX9989 followed by trypsinization by LC/MS analysis
[3] = target: Mitogen-activated protein kinase 9 (Homo sapiens, UniProt P45984); assay: Inhibition of JNK2 in human Jurkat cell lysates using desthiobiotin-tagged ATP probe AX9989 followed by trypsinization by LC/MS analysis
Chain of Mitogen-activated protein kinase 9 (P45984 whole entry): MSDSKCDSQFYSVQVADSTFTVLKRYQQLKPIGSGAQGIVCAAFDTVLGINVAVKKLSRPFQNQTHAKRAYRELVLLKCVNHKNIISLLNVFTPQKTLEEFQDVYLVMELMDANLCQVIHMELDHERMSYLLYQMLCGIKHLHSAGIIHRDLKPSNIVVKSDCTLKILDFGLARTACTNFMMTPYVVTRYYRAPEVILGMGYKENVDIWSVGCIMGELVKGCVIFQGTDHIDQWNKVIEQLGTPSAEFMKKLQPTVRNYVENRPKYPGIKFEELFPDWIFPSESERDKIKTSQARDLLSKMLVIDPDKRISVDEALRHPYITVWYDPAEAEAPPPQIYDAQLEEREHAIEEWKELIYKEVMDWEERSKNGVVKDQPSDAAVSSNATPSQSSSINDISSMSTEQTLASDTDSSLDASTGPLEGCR

T1 sequence (P45983 whole entry): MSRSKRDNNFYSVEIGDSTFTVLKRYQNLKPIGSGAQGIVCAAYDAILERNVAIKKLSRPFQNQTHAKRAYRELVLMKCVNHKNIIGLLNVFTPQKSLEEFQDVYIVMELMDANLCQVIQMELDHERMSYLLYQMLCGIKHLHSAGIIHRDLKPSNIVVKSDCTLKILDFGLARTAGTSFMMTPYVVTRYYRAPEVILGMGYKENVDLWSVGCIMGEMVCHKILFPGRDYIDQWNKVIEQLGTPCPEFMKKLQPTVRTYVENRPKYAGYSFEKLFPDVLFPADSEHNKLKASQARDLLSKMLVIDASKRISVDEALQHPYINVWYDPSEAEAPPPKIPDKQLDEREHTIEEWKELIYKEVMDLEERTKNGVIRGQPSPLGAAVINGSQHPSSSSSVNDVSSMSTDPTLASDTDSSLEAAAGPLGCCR

Row | Structure (SMILES) | IC50 [1] | IC50 [2] | IC50 [3]
1 | C[C@@H](NC(=O)c1ccc2c(c1)nc(N[C@H]1CC[C@H](O)CC1)c1nccn12)c1ccccc1 | 1500 nM |  | 
2 | O=C(NC1(c2ccccc2)CCCCC1)c1ccc2nc(N[C@H]3CC[C@H](O)CC3)c3nccn3c2c1 | 1220 nM |  | 
3 | O=C(NC(c1ccccc1)c1ccccc1)c1ccc2nc(N[C@H]3CC[C@H](O)CC3)c3nccn3c2c1 | 360 nM |  | 
4 | CS(=O)(=O)N[C@H]1CC[C@H](Nc2nc3ccccc3n3ccnc23)CC1 | 2400 nM |  | 
5 | CCC(CC)(NC(=O)c1ccc2nc(N[C@H]3CC[C@H](O)CC3)c3nccn3c2c1)c1ccccc1 | 160 nM | 59 nM | > 190 nM
6 | O=C(NC1(c2ccccc2)CCCC1)c1ccc2nc(N[C@H]3CC[C@H](O)CC3)c3nccn3c2c1 | 180 nM |  | 
7 | O[C@H]1CC[C@H](Nc2nc3ccccc3n3cccc23)CC1 | > 100000 nM |  | 
8 | NC(=O)c1ccc2c(c1)nc(N[C@H]1CC[C@H](O)CC1)c1nccn12 | 4170 nM |  | 
9 | O=C(N[C@@H](CO)c1ccccc1)c1ccc2nc(N[C@H]3CC[C@H](O)CC3)c3nccn3c2c1 | 4900 nM |  | 
10 | O[C@H]1CC[C@H](NC2=Nc3ccccc3N3CCN=C23)CC1 | 73000 nM |  | 
11 | O=C(NCc1ccccc1)c1ccc2c(c1)nc(N[C@H]1CC[C@H](O)CC1)c1nccn12 | 490 nM |  | 
12 | FC1(F)CCC(Nc2nc3ccccc3n3ccnc23)CC1 | 8000 nM |  | 
13 | O=C(O)c1ccc2c(c1)nc(N[C@H]1CC[C@H](O)CC1)c1nccn12 | 1500 nM | 82 nM | 
14 | O=C(NC1(c2ccc(Cl)cc2)CC1)c1ccc2nc(N[C@H]3CC[C@H](O)CC3)c3nccn3c2c1 | 190 nM | 140 nM | > 190 nM
15 | O=C(N[C@H](CCO)c1ccccc1)c1ccc2nc(N[C@H]3CC[C@H](O)CC3)c3nccn3c2c1 | 620 nM |  | 
16 | O=C(NCc1ccccc1)c1ccc2nc(N[C@H]3CC[C@H](O)CC3)c3nccn3c2c1 | 680 nM |  | 
17 | COC[C@@H](NC(=O)c1ccc2nc(N[C@H]3CC[C@H](O)CC3)c3nccn3c2c1)c1ccccc1 | 690 nM |  | 
18 | N[C@H]1CC[C@H](Nc2nc3ccccc3n3ccnc23)CC1 | 1700 nM |  | 
19 | CC[C@H](NC(=O)c1ccc2nc(N[C@H]3CC[C@H](O)CC3)c3nccn3c2c1)c1ccccc1 | 1700 nM |  | 
20 | O=C(NC1(c2ccccc2)CCCCCC1)c1ccc2nc(N[C@H]3CC[C@H](O)CC3)c3nccn3c2c1 | 430 nM |  | 
21 | CC(C)[C@@H](NC(=O)c1ccc2nc(N[C@H]3CC[C@H](O)CC3)c3nccn3c2c1)c1ccccc1 | 350 nM |  | 
22 | Cc1ccc(C2(NC(=O)c3ccc4nc(N[C@H]5CC[C@H](O)CC5)c5nccn5c4c3)CC2)cc1 | 250 nM |  | 
